PubChem BioAssay (NCI)
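A five-concentration, 48-hour dose response in 96-well plates underlies each endpoint, interpolated linearly between surrounding concentrations. Abbreviation: GI50, concentration required for 50% inhibition of growth. TGI is the concentration that stops growth completely.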

Legend:
Assay in all cases: NCI anticancer screen, dose series, 48 h
[1] = test system: MDA-MB-435
[2] = test system: SF-295 CNS
[3] = test system: U251 CNS
[4] = test system: SN12C renal
[5] = test system: LOX IMVI melanoma
[6] = test system: UACC-257 melanoma
[7] = test system: OVCAR-4 ovarian
[8] = test system: A498 renal
[9] = test system: T-47D breast

Structure (SMILES) | TGI [1] [µM] | TGI [2] [µM] | TGI [3] [µM] | TGI [4] [µM] | TGI [5] [µM] | TGI [6] [µM] | TGI [7] [µM] | TGI [8] [µM] | TGI [9] [µM] | GI50 [1] [µM] | GI50 [2] [µM] | GI50 [3] [µM] | GI50 [4] [µM] | GI50 [5] [µM] | GI50 [6] [µM] | GI50 [7] [µM] | GI50 [8] [µM] | GI50 [9] [µM]
C=CCn1c(=O)c(C(=O)Nc2nc(C34CC5CC(CC(C5)C3)C4)cs2)c(O)c2ccccc21 | > 100 | 40.7 | > 100 | > 100 | > 100 | 22.4 | > 100 | > 100 |  |  |  |  |  |  |  |  |  | 
O=C(/C=C/c1ccccc1)Oc1ccc(C(=O)/C=C/c2ccccc2)cc1 | 18.8 | 24.4 |  | 15.2 | 17.7 | 20.3 | 55.5 |  | 15.6 |  |  |  |  |  |  |  |  | 
Cc1ccc(C2=CC(=O)OC(C[P+](c3ccccc3)(c3ccccc3)c3ccccc3)(c3ccccc3)O2)cc1 (stereo not drawn) | 30.7 | 45.5 | 34.8 | 57.7 |  | 30.8 | 31.5 | 29.1 | 41.1 |  |  |  |  |  |  |  |  | 
Cc1nn(-c2ccccc2)c2c1C(c1cc3ccccc3nc1Cl)NC(=O)N2 (stereo not drawn) | 54.7 | 55.8 | 38.2 | 67.5 | 44.8 | 85.9 | > 100 | 62 | > 100 |  |  |  |  |  |  |  |  | 
N#CC(C#N)=C1SC(=Nc2ccccc2)C(=Nc2ccccc2)N1c1ccccc1 | 35.1 | > 76.6 | 41 | 77.2 | 24.4 | 30 | 34.8 | > 92.2 | 18 |  |  |  |  |  |  |  |  | 
Cc1nc(C)c(N2CCN([N+](=O)[O-])CC2)c(=O)[nH]1 | > 100 | > 100 | > 100 | > 100 | > 100 | > 100 | > 100 | > 100 | > 100 |  |  |  |  |  |  |  |  | 
Cn1c(SCc2ccc(F)cc2)nnc1C12CC3CC(CC(C3)C1)C2 | 61.7 | > 100 | > 100 | > 100 | 45.6 | 91.7 | > 100 | 48.4 | > 100 |  |  |  |  |  |  |  |  | 
NC(=O)c1c(NC(=O)c2ccccc2)sc2c1CCC(=O)C2 | 10.5 | 7.94 | 26.7 | 11.5 | 19.5 | 6.13 | 2.01 | 17.2 |  | 3.09 | 2.69 | 0.955 | 0.612 | 1.15 | 2.21 | 0.732 | 1.06 | 
O=C(CCn1ccnc1[N+](=O)[O-])NCCCn1ccnc1[N+](=O)[O-] | > 100 | > 100 | > 100 | > 100 | > 100 | > 100 | > 100 | > 100 | > 100 |  |  |  |  |  |  |  |  | 
CCCCCC#CCOC(=O)C(=[N+]=[N-])P(=O)(c1ccccc1)c1ccccc1 | > 10 | > 10 | > 10 | > 10 | > 10 | > 10 |  | > 10 | > 10 |  |  |  |  |  |  |  |  | 
COc1cc(O)c2c(c1)C(=O)c1cc3c(c(O)c1C2=O)C(OC1OC(C)C(OC)C(O)C1OC)C(OC)C(C)(O)C3=O (stereo not drawn) | 16.1 | 18.3 | 22.8 |  | 12.4 | 16.2 | 15.5 | 21.7 |  |  |  |  |  |  |  |  |  | 
C[C@H](CCC(=O)O)[C@H]1CC[C@H]2[C@@H]3C(=O)C[C@@H]4C[C@H](O)CC[C@]4(C)[C@H]3C[C@H](O)[C@]12C | > 100 |  | > 100 | > 100 | > 100 | > 100 | > 100 | > 100 | > 100 |  |  |  |  |  |  |  |  | 
COc1ccc(C2c3cn[nH]c3CC3CCCCC32)cc1 (stereo not drawn) | 40.4 |  | 28.9 | 33.2 | 31.8 | 45.9 | 43.5 | 23 | 19 |  |  |  |  |  |  |  |  | 
Cc1c(O)nc(-n2[nH]c3c(c2=O)CCCC3)[nH]c1=O | > 100 | > 100 | > 100 | > 100 |  | > 100 | > 100 | > 100 | > 100 |  |  |  |  |  |  |  |  | 
C/C(=N\N=C1/C(=O)OC(c2ccccc2)=C1C(=O)c1ccccc1)c1ccc([N+](=O)[O-])cc1 | > 100 | > 100 | > 100 | > 100 | > 100 | > 100 | > 100 | > 100 | > 100 |  |  |  |  |  |  |  |  | 
CCCNc1ncnc2c1ncn2C | > 100 | > 100 | > 100 | 98.2 | > 100 | > 100 | > 100 | 95.1 | > 100 |  |  |  |  |  |  |  |  | 
CCOc1cc(/C=C2/C(C)=NN(c3cccc(Cl)c3)/C2=N/c2nc3ccccc3s2)ccc1O |  | 93.8 | 43 |  | > 100 | 61.6 |  | 56.9 | > 100 |  |  |  |  |  |  |  |  | 
O=P(O)(O)C(N=C(Nc1ccccc1)Nc1ccccc1)P(=O)(O)O |  | > 100 |  |  | > 100 | > 100 |  |  |  |  |  |  |  |  |  |  |  | 
CCOC(=O)c1cccc(N=Nc2nc[nH]c2/C=C/C(=O)OC)c1 | > 100 | > 100 | > 100 | 68.1 | > 100 | 60.4 | > 100 | 66.8 | > 100 |  |  |  |  |  |  |  |  | 
COC(=O)C(Cc1ccc2c(c1)CCC2)Cc1ccc2c(c1)CCC2 | > 100 | > 100 | > 100 | > 100 | 60.4 | > 100 | > 100 | > 100 | > 100 |  |  |  |  |  |  |  |  | 
C[n+]1c(/C=C/c2c(O)ccc3ccccc23)ccc2ccccc21 | 12.6 | 13.5 | 13.8 | 13.6 | 12.7 | 14.9 | 10.5 | 9.43 | 14.7 | 5.84 | 5.82 | 5.43 | 6.08 | 5.65 | 7.17 | 3.39 | 2.34 | 4.32
CSC1=N/C(=C\c2ccc(C)cc2)C(=O)N1CN1CCCCC1 | > 100 | > 100 | > 100 | > 100 | > 100 |  | > 100 | > 100 |  |  |  |  |  |  |  |  |  | 
